Where “and” joins values, the source holds several entries; their conditions need not be identical. Equal entries are not always repeated. Where two headings read alike, the source gives them in different places.
Tests used:
Capan-1 (K-Ras G12V) = test: CellTiter-Glo cell viability assay, 5-day treatment; assay type: cell-based; settings: Homo sapiens, CAPAN-1, 120 h
In short: (§1)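 Viability is read as luminescence on day 5 after direct compound addition to plated cells, following about 30 minutes' room-temperature equilibration. Each signal is scaled to mean DMSO as 100%.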

NCI-H358 (K-Ras G12C) = test: as above; assay type: cell-based; settings: Homo sapiens, NCI-H358, 120 h
In short: as §1

KRAS G12C = KRAS G12C (Homo sapiens, UniProt P01116+P62937, G12C); test: Disruption of BRAF RBD interaction with Ras (FRET / MOA assay, with Cyclophilin A); assay type: biochemical
Sequence of KRAS G12C (P01116 1-169 isoform P01116-2 G12C): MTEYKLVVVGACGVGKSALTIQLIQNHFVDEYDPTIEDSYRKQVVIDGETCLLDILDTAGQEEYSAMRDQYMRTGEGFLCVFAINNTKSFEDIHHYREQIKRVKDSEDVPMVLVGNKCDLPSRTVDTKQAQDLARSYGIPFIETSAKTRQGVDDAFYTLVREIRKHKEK
Sequence of KRAS G12C (P62937 whole entry): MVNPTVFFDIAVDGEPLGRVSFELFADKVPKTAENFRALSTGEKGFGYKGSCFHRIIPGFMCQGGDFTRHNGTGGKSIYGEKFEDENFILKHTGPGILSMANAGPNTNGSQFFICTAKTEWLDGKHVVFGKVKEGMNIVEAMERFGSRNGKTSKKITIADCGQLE
In short: (§2)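 Cyclophilin A-dependent ternary complex assay. K-Ras loaded with nucleotide; BRAF RBD as effector. Cpd top 30 μM final, 3 h at 25 °C. Readout: TR-FRET ratio, IC50.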

KRAS G12D = KRAS G12D (Homo sapiens, UniProt P01116+P62937, G12D); test: as above; assay type: biochemical
Sequence of KRAS G12D (P01116 1-169 isoform P01116-2 G12D limits assumed): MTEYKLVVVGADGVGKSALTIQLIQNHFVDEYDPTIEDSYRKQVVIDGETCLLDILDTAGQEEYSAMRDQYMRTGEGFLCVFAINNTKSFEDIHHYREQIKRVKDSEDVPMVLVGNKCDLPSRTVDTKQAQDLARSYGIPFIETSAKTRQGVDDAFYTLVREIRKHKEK
Sequence of KRAS G12D (P62937 whole entry): as the sequence (P62937 whole entry) above
In short: as §2

KRAS G12S = KRAS G12S (Homo sapiens, UniProt P01116+P62937, G12S); test: as above; assay type: biochemical
Sequence of KRAS G12S (P01116 1-169 isoform P01116-2 G12S limits assumed): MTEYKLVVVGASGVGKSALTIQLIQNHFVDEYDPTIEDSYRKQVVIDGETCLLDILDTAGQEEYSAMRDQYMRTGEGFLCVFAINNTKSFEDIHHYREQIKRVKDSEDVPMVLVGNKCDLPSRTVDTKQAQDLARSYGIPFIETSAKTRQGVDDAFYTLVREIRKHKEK
Sequence of KRAS G12S (P62937 whole entry): as the sequence (P62937 whole entry) above
In short: as §2

KRAS G12V = KRAS G12V (Homo sapiens, UniProt P01116+P62937, G12V); test: as above; assay type: biochemical
Sequence of KRAS G12V (P01116 1-169 isoform P01116-2 G12V limits assumed): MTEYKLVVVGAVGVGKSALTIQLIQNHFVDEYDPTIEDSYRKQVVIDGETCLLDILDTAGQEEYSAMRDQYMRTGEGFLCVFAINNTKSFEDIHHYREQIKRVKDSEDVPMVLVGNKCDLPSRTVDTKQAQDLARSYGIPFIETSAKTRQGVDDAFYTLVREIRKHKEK
Sequence of KRAS G12V (P62937 whole entry): as the sequence (P62937 whole entry) above
In short: as §2

KRAS G13C = KRAS G13C (Homo sapiens, UniProt P01116+P62937, G13C); test: as above; assay type: biochemical
Sequence of KRAS G13C (P01116 1-169 isoform P01116-2 G13C): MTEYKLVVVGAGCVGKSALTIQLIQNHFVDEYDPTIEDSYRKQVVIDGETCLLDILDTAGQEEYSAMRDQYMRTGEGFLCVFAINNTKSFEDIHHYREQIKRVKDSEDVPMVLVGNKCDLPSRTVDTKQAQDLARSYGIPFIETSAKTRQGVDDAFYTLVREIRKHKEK
Sequence of KRAS G13C (P62937 whole entry): as the sequence (P62937 whole entry) above
In short: as §2

KRAS G13D = KRAS G13D (Homo sapiens, UniProt P01116+P62937, G13D); test: as above; assay type: biochemical
Sequence of KRAS G13D (P01116 1-169 isoform P01116-2 G13D limits assumed): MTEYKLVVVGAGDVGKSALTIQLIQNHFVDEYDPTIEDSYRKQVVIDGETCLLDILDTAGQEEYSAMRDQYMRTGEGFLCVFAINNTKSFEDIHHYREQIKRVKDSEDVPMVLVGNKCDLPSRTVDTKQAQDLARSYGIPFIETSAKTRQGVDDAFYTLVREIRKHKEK
Sequence of KRAS G13D (P62937 whole entry): as the sequence (P62937 whole entry) above
In short: as §2

KRAS WT = KRAS WT (Homo sapiens, UniProt P01116+P62937); test: as above; assay type: biochemical
Sequence of KRAS WT (P01116 1-169 isoform P01116-2 limits assumed): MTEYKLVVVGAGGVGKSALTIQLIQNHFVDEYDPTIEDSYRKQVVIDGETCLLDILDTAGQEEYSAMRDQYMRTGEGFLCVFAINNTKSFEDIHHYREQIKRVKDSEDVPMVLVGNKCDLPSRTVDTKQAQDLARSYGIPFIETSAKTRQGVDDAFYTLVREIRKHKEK
Sequence of KRAS WT (P62937 whole entry): as the sequence (P62937 whole entry) above
In short: as §2

NRAS G12C = NRAS G12C (Homo sapiens, UniProt P01111+P62937, G12C); test: as above; assay type: biochemical
Sequence of NRAS G12C (P01111 whole entry G12C): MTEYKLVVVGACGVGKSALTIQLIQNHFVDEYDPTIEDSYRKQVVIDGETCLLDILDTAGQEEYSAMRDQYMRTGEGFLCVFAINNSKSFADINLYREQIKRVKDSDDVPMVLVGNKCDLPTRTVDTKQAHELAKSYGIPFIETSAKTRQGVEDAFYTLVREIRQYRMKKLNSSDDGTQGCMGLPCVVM
Sequence of NRAS G12C (P62937 whole entry): as the sequence (P62937 whole entry) above

[1] = 5-day treatment, read-out: Capan-1 Cell Viability assay data (K-Ras G12V, IC50)
[2] = 5-day treatment, read-out: H358 Cell Viability assay data (K-Ras G12C, IC50)
[3] = read-out: KRAS G12C FRET data, IC50
[4] = read-out: KRAS G12D FRET data, IC50
[5] = read-out: KRAS G12S FRET data, IC50
[6] = KRAS G12V, read-out: KRAS G12V FRET data IC50
[7] = read-out: KRAS G13C FRET data, IC50
[8] = KRAS G13D, read-out: KRAS G13D FRET data IC50
[9] = KRAS WT, read-out: KRAS WT FRET data IC50
[10] = NRAS G12C, read-out: NRAS G12C FRET data IC50
[11] = KRAS G12V FRET data IC50, KRAS G12V
[12] = KRAS G13D FRET data IC50, KRAS G13D
[13] = KRAS WT FRET data IC50, KRAS WT
[14] = NRAS G12C FRET data IC50, NRAS G12C

Measured: IC50

CCn1c(-c2cccnc2[C@H](C)OC)c2c3cc(ccc31)-c1cc(O)cc(c1)C[C@H](NC(=O)[C@H](C(C)C)N(C)C(=O)C1NCCC1C(C)C)C(=O)N1CCC[C@H](N1)C(=O)OCC(C)(C)C2 (stereo partly shown) [Example A227]
100 to 1000 nM and 1000 to 10000 nM: KRAS G12V; [6]
100 to 1000 nM and 10 to 100 nM: KRAS G12C; [3] | KRAS G12D; [4] | KRAS G12S; [5] | KRAS WT; [9]
1 to 10 µM: NCI-H358 (K-Ras G12C); [2]
10 to 100 nM: KRAS G13C; [7] | KRAS G13D; [8]
100 to 1000 nM: NRAS G12C; [10]
> 10 µM: Capan-1 (K-Ras G12V); [1]

CCn1c(-c2cccnc2[C@H](C)OC)c2c3cc(ccc31)-c1cc(O)cc(c1)C[C@H](NC(=O)[C@H](C(C)C)N(C)C(=O)[C@H]1CCCNC1)C(=O)N1CCC[C@H](N1)C(=O)OCC(C)(C)C2 [Example A243]
100 to 1000 nM: KRAS G12V; [6]
10 to 100 nM: KRAS G12C; [3] | KRAS G12D; [4] | KRAS G12S; [5] | KRAS G13C; [7] | KRAS G13D; [8] | KRAS WT; [9] | NRAS G12C; [10]
0.1 to 1 µM: NCI-H358 (K-Ras G12C); [2]
> 10 µM: Capan-1 (K-Ras G12V); [1]

CCn1c(-c2cccnc2[C@H](C)OC)c2c3cc(ccc31)-c1cc(O)cc(c1)C[C@H](NC(=O)[C@H](C(C)C)N(C)C(=O)[C@H]1CCN(C(=O)[C@@H]3CCCN3C)C1)C(=O)N1CCC[C@H](N1)C(=O)OCC(C)(C)C2 [Example A385]
10 to 100 nM: KRAS G12C; [3] | KRAS G12D; [4] | KRAS G12S; [5] | KRAS G12V; [6] | KRAS G13C; [7] | KRAS G13D; [8] | KRAS WT; [9] | NRAS G12C; [10]
0.1 to 1 µM: Capan-1 (K-Ras G12V); [1] | NCI-H358 (K-Ras G12C); [2]

CCn1c(-c2cccnc2[C@H](C)OC)c2c3cc(ccc31)-c1cc(O)cc(c1)C[C@H](NC(=O)[C@H](C(C)C)N(C)C(=O)N1CC(N(C)C)C1)C(=O)N1CCC[C@H](N1)C(=O)OCC(C)(C)C2 [Example A171]
10 to 100 nM: KRAS G13C; [7]
0.1 to 1 µM: Capan-1 (K-Ras G12V); [1] | NCI-H358 (K-Ras G12C); [2]
100 to 1000 nM: KRAS G12C; [3] | KRAS G12D; [4] | KRAS G12S; [5] | KRAS G12V; [6] | KRAS G13D; [8] | KRAS WT; [9] | NRAS G12C; [10]

CCn1c(-c2cnccc2COC)c2c3cc(ccc31)-c1cc(O)cc(c1)C[C@H](NC(=O)[C@H](C(C)C)N(C)C(=O)[C@H]1CCN(C(=O)OC)C1)C(=O)N1CCC[C@H](N1)C(=O)OCC(C)(C)C2 [Example A11, methyl (3S)-3-{[(1S)-1-{[(8S,14S)-22-ethyl-4-hydroxy-21-[4-(methoxymethyl)pyridin-3-yl]-18,18-dimethyl-9,15-dioxo-16-oxa-10,22,28-triazapentacyclo[18.5.2.1^2,6.1^10,14.0^23,27]nonacosa-1(26),2,4,6(29),20,23(27),24-heptaen-8-yl]carbamoyl}-2-methylpropyl](methyl)carbamoyl}pyrrolidine-1-carboxylate]
10 to 100 nM: KRAS G12C; KRAS G12C FRET data, IC50 | KRAS G12V; [11] | NRAS G12C; [14]
1000 to 10000 nM: KRAS G12D; KRAS G12D FRET data, IC50
0.1 to 1 µM: Capan-1 (K-Ras G12V); [1] | NCI-H358 (K-Ras G12C); [2]
100 to 1000 nM: KRAS G12S; KRAS G12S FRET data, IC50 | KRAS G13C; KRAS G13C FRET data, IC50 | KRAS G13D; [12] | KRAS WT; [13]

CCn1c(-c2cccnc2[C@H](C)OC)c2c3cc(ccc31)-c1csc(n1)C[C@H](NC(=O)[C@H](C(C)C)N(C)C(=O)N(C)C(C)C)C(=O)N1CCC[C@H](N1)C(=O)OCC(C)(C)C2 [Example A350]
0.1 to 1 µM: Capan-1 (K-Ras G12V); [1]
0.01 to 0.1 µM: NCI-H358 (K-Ras G12C); [2]
100 to 1000 nM: KRAS G12D; [4] | KRAS G12S; [5] | KRAS G12V; [6] | KRAS G13C; [7] | KRAS G13D; [8] | KRAS WT; [9]
10 to 100 nM: KRAS G12C; [3] | NRAS G12C; [10]

CCn1c(-c2cccnc2[C@H](C)OC)c2c3cc(ccc31)-c1csc(n1)C[C@H](NC(=O)[C@H](C(C)C)N(C)C(=O)[C@H]1CCCO1)C(=O)N1CCC[C@H](N1)C(=O)OCC(C)(C)C2 [Example A238]
> 10000 nM: KRAS G12D; [4]
0.1 to 1 µM: Capan-1 (K-Ras G12V); [1] | NCI-H358 (K-Ras G12C); [2]
1000 to 10000 nM: KRAS G12C; [3] | KRAS G12S; [5] | KRAS G12V; [6] | KRAS G13C; [7] | KRAS G13D; [8] | KRAS WT; [9] | NRAS G12C; [10]

CCn1c(-c2cccnc2[C@H](C)OC)c2c3cc(ccc31)-c1cc(O)cc(c1)C[C@H](NC(=O)[C@H](C(C)C)N(C)C(=O)O[C@H]1CCOC1)C(=O)N1CCC[C@H](N1)C(=O)OCC(C)(C)C2 [Example A209]
100 to 1000 nM: KRAS G12C; [3] | KRAS G12D; [4] | KRAS G12S; [5] | KRAS G12V; [6] | KRAS G13C; [7] | KRAS G13D; [8] | KRAS WT; [9] | NRAS G12C; [10]
0.1 to 1 µM: Capan-1 (K-Ras G12V); [1] | NCI-H358 (K-Ras G12C); [2]

CCn1c(-c2cccnc2[C@H](C)OC)c2c3cc(ccc31)-c1cc(O)cc(c1)C[C@H](NC(=O)[C@H](C(C)C)N(C)C(=O)[C@H]1CCN(C(=O)CN)C1)C(=O)N1CCC[C@H](N1)C(=O)OCC(C)(C)C2 [Example A1]
10 to 100 nM: KRAS G12C; [3] | KRAS G12D; [4] | KRAS G12S; [5] | KRAS G12V; [6] | KRAS G13C; [7] | KRAS G13D; [8] | KRAS WT; [9] | NRAS G12C; [10]
1 to 10 µM: Capan-1 (K-Ras G12V); [1] | NCI-H358 (K-Ras G12C); [2]

CCn1c(-c2cccnc2[C@H](C)OC)c2c3cc(ccc31)-c1cc(O)cc(c1)C[C@H](NC(=O)[C@H](C(C)C)N(C)C(=O)C1(CO)CC1)C(=O)N1CCC[C@H](N1)C(=O)OCC(C)(C)C2 [Example A232]
100 to 1000 nM: KRAS G12C; [3] | KRAS G12D; [4] | KRAS G12S; [5] | KRAS G12V; [6] | KRAS G13C; [7] | KRAS G13D; [8] | KRAS WT; [9] | NRAS G12C; [10]
0.1 to 1 µM: Capan-1 (K-Ras G12V); [1] | NCI-H358 (K-Ras G12C); [2]

CCn1c(-c2cccnc2[C@H](C)OC)c2c3cc(ccc31)-c1csc(n1)C[C@H](NC(=O)[C@H](C(C)C)N(C)C(=O)N1CC(N3CCCC3)C1)C(=O)N1CCC[C@H](N1)C(=O)OCC(C)(C)C2 [Example A329]
0.01 to 0.1 µM: Capan-1 (K-Ras G12V); [1] | NCI-H358 (K-Ras G12C); [2]
1000 to 10000 nM: KRAS G12D; [4]
100 to 1000 nM: KRAS G12C; [3] | KRAS G12S; [5] | KRAS G12V; [6] | KRAS G13C; [7] | KRAS G13D; [8] | KRAS WT; [9] | NRAS G12C; [10]

CCn1c(-c2cnccc2COC)c2c3cc(ccc31)-c1cc(O)cc(c1)C[C@H](NC(=O)[C@H](C(C)C)N(C)C(=O)[C@@H]1NC[C@@H]3C[C@@H]31)C(=O)N1CCC[C@H](N1)C(=O)OCC(C)(C)C2 [Example A78]
1 to 10 µM: Capan-1 (K-Ras G12V); read-out: Capan-1 Cell Viability assay data (K-Ras G12V, IC50, uM)
10 to 100 nM: KRAS G13C; KRAS G13C FRET data, IC50
100 to 1000 nM: KRAS G12C; KRAS G12C FRET data, IC50 | KRAS G12D; KRAS G12D FRET data, IC50 | KRAS G12S; KRAS G12S FRET data, IC50 | KRAS G12V; [11] | KRAS G13D; [12] | KRAS WT; [13] | NRAS G12C; [14]
0.1 to 1 µM: NCI-H358 (K-Ras G12C); read-out: H358 Cell Viability assay data (K-Ras G12C, IC50, uM), 5-day treatment

CCn1c(-c2cccnc2[C@H](C)OC)c2c3cc(ccc31)-c1cc(O)cc(c1)C[C@H](NC(=O)[C@H](C(C)C)N(C)C(=O)C1CNC1)C(=O)N1CCC[C@H](N1)C(=O)OCC(C)(C)C2 [Example A125]
10 to 100 nM: KRAS G12C; [3] | KRAS G12D; [4] | KRAS G12S; [5] | KRAS G13C; [7] | KRAS G13D; [8] | KRAS WT; [9] | NRAS G12C; [10]
1 to 10 µM: Capan-1 (K-Ras G12V); [1] | NCI-H358 (K-Ras G12C); [2]
100 to 1000 nM: KRAS G12V; [6]
